From the NIST ThermoML archive (doi:10.1021/je101131x)
Numbers after ± are expanded uncertainties.

Settings: Liquid

Row | Compound | vapor or sublimation pressure (323.15 K) | vapor or sublimation pressure (333.15 K) | vapor or sublimation pressure (343.15 K) | vapor or sublimation pressure (353.15 K)
1 | CCCOC(C)=O [propyl ethanoate] | 16.09 ± 0.61 kPa | 24.01 ± 0.8 kPa | 34.99 ± 1.1 kPa | 49.92 ± 1.4 kPa
2 | CC(=O)O [acetic acid] | 7.567 ± 0.41 kPa | 12.04 ± 0.51 kPa | 18.66 ± 0.67 kPa | 28.2 ± 0.89 kPa
